Entries after “also recorded” stand apart in the source; their conditions may differ. Where a name gives a salt, the structure may show the parent alone. Read-outs that look alike come from different tables or passages of the source.
Assays:
[1] = target: T1, novel L-glutamic acid oxidase (Streptomyces sp, UniProt Q8L3C7); assay: Substrate specificity of the novel enzyme, oxygen electrode method
T1 sequence (Q8L3C7 15-390 limits assumed): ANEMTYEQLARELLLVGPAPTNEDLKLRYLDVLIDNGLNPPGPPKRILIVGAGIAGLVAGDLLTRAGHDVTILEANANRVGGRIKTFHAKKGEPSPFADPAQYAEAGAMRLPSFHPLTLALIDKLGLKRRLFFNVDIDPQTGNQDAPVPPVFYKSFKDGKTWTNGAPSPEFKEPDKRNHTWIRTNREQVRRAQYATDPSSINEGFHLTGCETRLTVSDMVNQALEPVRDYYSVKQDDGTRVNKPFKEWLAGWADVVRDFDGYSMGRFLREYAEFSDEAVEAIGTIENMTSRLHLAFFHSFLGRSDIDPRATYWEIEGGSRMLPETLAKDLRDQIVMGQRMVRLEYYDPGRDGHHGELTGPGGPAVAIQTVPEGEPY
T1 sequence (Q8L3C7 391-520 limits assumed): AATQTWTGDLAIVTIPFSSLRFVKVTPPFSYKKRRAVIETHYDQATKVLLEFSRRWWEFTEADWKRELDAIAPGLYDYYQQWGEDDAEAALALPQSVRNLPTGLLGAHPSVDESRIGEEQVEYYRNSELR
T1 sequence (Q8L3C7 521-701 limits assumed): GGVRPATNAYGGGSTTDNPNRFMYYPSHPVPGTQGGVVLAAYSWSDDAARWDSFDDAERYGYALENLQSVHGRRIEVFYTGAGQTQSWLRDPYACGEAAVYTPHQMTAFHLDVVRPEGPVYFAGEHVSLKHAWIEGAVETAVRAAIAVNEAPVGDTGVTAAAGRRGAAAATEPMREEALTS
Procedure: The concentration of each substrate was 10 mM, and the reactions were carried out at pH 7.4 (0.1 M potassium phosphate buffer) and pH 6.0 (0.1 M acetate buffer).
That is, 1 ml of 0.1 M potassium phosphate buffer (pH 7.4) containing 10 mM sodium L-glutamate was charged into an oxygen electrode cell and 10 μl of an enzyme solution was added thereto to measure the oxygen consumption rate. One unit of enzyme was determined as the amount of enzyme which consumes 1μ mol of oxygen per minute at 30° C. in the absence of catalase (unit: hereinafter abbreviated as "U").

[2] = target: T2, immobilized L-glutamic acid oxidase (Streptomyces sp, UniProt Q8L3C7); assay: Responses of the L-glutamic acid sensor of Example C1 to various amino acids; assay type: biochemical, Streptomyces sp. X-119-6
T2 construct: from the cultured product of an actinomycete newly isolated from a soil sample; made in house; host or cells: cultured product of the natural (non-recombinant) actinomycete strain; immobilized on a Cellophane membrane with glutaraldehyde
T2 sequence (Q8L3C7 15-390 limits assumed): T1 sequence (Q8L3C7 15-390 limits assumed)
T2 sequence (Q8L3C7 391-520 limits assumed): T1 sequence (Q8L3C7 391-520 limits assumed)
T2 sequence (Q8L3C7 521-701 limits assumed): T1 sequence (Q8L3C7 521-701 limits assumed)
Procedure: In FIG. 18, the sample solution 2 injected through inlet 1 is transferred by a peristaltic pump 4 together with oxygen saturated buffer 3 into a cell 5.
The results obtained by the measurement are shown as relative responses. The reaction was carried out in 0.1M of acetic acid-sodium acetate buffer at pH 5.5 and 30° C.

[3] = target: T1, novel L-glutamic acid oxidase; assay: Effects of various additives on the activity of the novel enzyme; assay type: biochemical, Streptomyces sp. X-119-6; set-up: from the cultured product of an actinomycete newly isolated from a soil sample; made in house; host or cells: cultured product of the natural (non-recombinant) actinomycete strain, purified; conditions: for activity at 1000 µM: read-out: Relative activity
[4] = system: lyophilized cell of E. coli, which exhibits L-glutamic acid decarboxylase activity; conditions: microorganism electrode, glutamic acid = 100; cited from earlier work
[5] = system: glutamic acid oxidase (known enzyme); conditions: cited from earlier work
[6] = pH 6, read-out: Relative Activity (%) pH 6.0, substrate 10 mM, pH 6.0 (0.1 M acetate buffer), relative to L-glutamic acid
[7] = pH 7.4, read-out: Relative Activity (%) pH 7.4, substrate 10 mM, pH 7.4 (0.1 M potassium phosphate buffer), relative to L-glutamic acid
[8] = pH 5.5, read-out: Relative response (%)
[9] = pH 6, read-out: Relative Activity (%) pH 6.0
[10] = pH 7.4, read-out: Relative Activity (%) pH 7.4
[11] = pH 5.5; read-out: Relative response (%)
[12] = additive 1 mM, pH 7.4, no addition = 100

## NCCCC[C@H](N)C(=O)O [L-Lysine]
[1]; [6]
  activity at 10000 µM: < 0.1%
[1]; [7]
  activity at 10000 µM: < 0.1%
[2]; [8]
  activity at 2000 µM: < 0.1%

## CSCC[C@H](N)C(=O)O [L-Methionine]
[1]; [6]
  activity at 10000 µM: < 0.1%
[1]; [7]
  activity at 10000 µM: < 0.1%
[2]; [8]
  activity at 2000 µM: < 0.1%

## NCCC[C@H](N)C(=O)O [L-Ornithine]
[1]; [6]
  activity at 10000 µM: < 0.1%
[1]; [7]
  activity at 10000 µM: < 0.1%
[2]; [8]
  activity at 2000 µM: < 0.1%

## N[C@@H](Cc1ccccc1)C(=O)O [L-Phenylalanine]
[1]; [9]
  activity at 10000 µM: < 0.1%
[1]; [10]
  activity at 10000 µM: < 0.1%
[2]; [11]
  activity at 2000 µM: < 0.1%

## O=C(O)[C@@H]1CCCN1 [L-Proline]
[1]; [6]
  activity at 10000 µM: < 0.1%
[1]; [7]
  activity at 10000 µM: < 0.1%
[2]; [8]
  activity at 2000 µM: < 0.1%

## N[C@@H](CO)C(=O)O [L-Serine]
[1]; [6]
  activity at 10000 µM: < 0.1%
[2]; [8]
  activity at 2000 µM: < 0.1%

## C[C@@H](O)[C@H](N)C(=O)O [L-Threonine]
[1]; [9]
  activity at 10000 µM: < 0.1%
[1]; [10]
  activity at 10000 µM: < 0.1%
[2]; [11]
  activity at 2000 µM: < 0.1%

## N[C@@H](Cc1c[nH]c2ccccc12)C(=O)O [L-Tryptophan]
[2]; [8]
  activity at 2000 µM: < 0.1%

## N[C@@H](Cc1ccc(O)cc1)C(=O)O [L-Tyrosine]
[1]; [6]
  activity at 10000 µM: < 0.1%
[1]; [7]
  activity at 10000 µM: < 0.1%

## CC(C)[C@H](N)C(=O)O [L-Valine]
[1]; [6]
  activity at 10000 µM: < 0.1%
[1]; [7]
  activity at 10000 µM: < 0.1%
[2]; [8]
  activity at 2000 µM: < 0.1%

## O=S(=O)([O-])[O-].[Li+].[Li+] [Li2 SO4]
[3]; [12]
  Relative activity: 93.8

## O=S(=O)([O-])[O-].[Mn+2] [MnSO4]
[3]; [12]
  Relative activity: 102.1

## CCN1C(=O)C=CC1=O [NEM, N--ethylmaleimide]
[3]; [12]
  activity at 1000 µM: 94.4%

## [Cl-].[Na+] [NaCl]
[3]; l-glutamic acid oxidase, pH 7.4, 1000 µM
  Relative activity: 95.8

## [F-].[Na+] [NaF]
[3]; [12]
  Relative activity: 107.6

## [N-]=[N+]=[N-].[Na+] [NaN3]
[3]; [12]
  Relative activity: 100.6

## [Cl][Ni][Cl] [NiCl2]
[3]; [12]
  Relative activity: 96.5

## O=C(O)c1cc[c]([Hg][Cl])cc1 [PCMB, pchloromercuribenzoate]
[3]; additive 1 mM, pH 7.4
  inhibition of the activity of the novel enzyme: about 45%
[3]; [12]
  Relative activity: 55.6

## [Cl-].[Cl-].[Sr+2] [StCl2]
[3]; [12]
  Relative activity: 97.2

## O=S(=O)(O)c1cc(O)c(O)c(S(=O)(=O)O)c1 [Tiron, 4,5dihydroxy-1,3-benzenedisulfonic acid disodium salt]
[3]; [12]
  activity at 1000 µM: 101%

## N[C@@H](Cc1c[nH]c2ccccc12)C(=O)O [Tryptophan]
[4]
  Relative sensitivity ratio: 0.4

## O=S(=O)([O-])[O-].[Zn+2] [ZnSO4]
[3]; [12]
  Relative activity: 90.3

## [Cu+] [copper ions]
[5]
  inhibition of the known enzyme (in words): Substantially completely inhibited; also recorded: markedly inhibited

## c1cnc2c(c1)ccc1cccnc12 [o-phenanthroline]
[3]; [12]
  activity at 1000 µM: 97.8%

## c1ccc(-c2ccccn2)nc1 [α,α'-dipyridyl]
[3]; [12]
  activity at 1000 µM: 94.4%

## mercury ions
[5]
  inhibition of the known enzyme (in words): Substantially completely inhibited
